Reference: US20260035363A1, “COMPOUNDS AND METHODS OF USE THEREOF AS ANTIBACTERIAL AGENTS” (priority 2019, published 2026)
Converted amounts (≈) assume the structure as drawn. Read-outs that look alike come from different tables or passages of the source.

Legend:
Format in all cases: cell-based
[1] = test system: Mycobacterium tuberculosis (Mtb-GFP; H37Rv pMSP12::GFP); experiment: microbe, parasite or virus in culture; settings: 168 h, pH 6.8, read-out: Mtb Cho MITC95, cholesterol carbon source, pH 6.8, 7-day growth, GFP fluorescence, lowest concentration inhibiting 95% of growth
[2] = test system: Mycobacterium tuberculosis (Mtb-GFP; H37Rv pMSP12::GFP); experiment: microbe, parasite or virus in culture; settings: 168 h, pH 6.8, read-out: Mtb Glu MITC95, glucose carbon source, pH 6.8, 7-day growth, GFP fluorescence, lowest concentration inhibiting 95% of growth
[3] = test system: mitochondrial protein synthesis in HepG2 cells; experiment: Mitochondrial protein synthesis assay (COX-I to SDH-A ratio, In Cell ELISA); settings: Homo sapiens, HepG2, 96 h, 4 days, ratio of COX-I to SDH-A levels, read-out: MPS IC50
Experimental: Mitochondrial Protein Synthesis Assay
Inhibition of mitochondrial protein synthesis was assessed in HepG2 cells by comparing the levels of two subunits of oxidative phosphorylation enzyme complexes, subunit I of Complex IV (COX-I) and the 70 kDa subunit of Complex II (SDH-A). COX-I is mitochondrial DNA encoded and SDH-A is nuclear DNA encoded. HepG2 cells were seeded in 96-well collagen coated plates at 8,000 cells per well and exposed to 2-fold serial dilutions of compounds from 100 μM to 6.25 μM. Microtiter plates were incubated for approximately 5 replication cycles (4 days) prior to assessment of protein levels using a kit as described by the manufacturer (ab110217 MitoBiogenesis In Cell ELISA Kit, Abcam, Cambridge, MA). Inhibition of mitochondrial protein synthesis was expressed as a ratio of COX-1 to SDH-A levels.

Compound	MIC [1]	MIC [2]	IC50 [3]
CN=S1(=O)CCC(F)(c2c(F)cc(C3=NO[C@@H](CNC(=O)OC)C3)cc2F)CC1 (single isomer, unassigned) [Example 8]	3.12 µM (≈ 1.35 µg/mL)	3.12 µM (≈ 1.35 µg/mL)	> 100 µM
O=S1(=O)CCC(F)(c2ccc(C3=NO[C@@H](Cn4ccnn4)C3)cc2F)CC1 [Example 48, 4-Fluoro-4-(2-fluoro-4-{(5R)-5-[(1H-1,2,3-triazol-1-yl)methyl]-4,5-dihydro-1,2-oxazol-3-yl}phenyl)-1λ^6-thiane-1,1-dione]	6.25 µM (≈ 2.48 µg/mL)	6.25 µM (≈ 2.48 µg/mL)	> 100 µM
Cc1nnc2cc(-c3c(F)cc(C4=NO[C@@H](Cn5ccnn5)C4)cc3F)ccn12 [Example 16, (5R)-3-[3,5-Difluoro-4-(3-methyl-[1,2,4]triazolo[4,3-a]pyridin-7-yl)phenyl]-5-(triazol-1-ylmethyl)-4,5-dihydroisoxazole]	0.59 µM (≈ 0.233 µg/mL)	0.39 µM (≈ 0.154 µg/mL)	5.4 µM
CN1CC(CF)(S(=O)(=O)c2ccc(-c3ccc(C4=NO[C@@H](Cn5ccnn5)C4)cc3F)cc2)C1 [Example 25, 1-{[(5R)-3-{2-Fluoro-4′-[3-(fluoromethyl)-1-methylazetidine-3-sulfonyl][1,1′-biphenyl]-4-yl}-4,5-dihydro-1,2-oxazol-5-yl]methyl}-1H-1,2,3-triazole]	0.09 µM (≈ 0.0439 µg/mL)	0.19 µM (≈ 0.0926 µg/mL)	2.5 µM
CC1(c2nnc3cc(-c4ccc(C5=NO[C@@H](Cn6ccnn6)C5)cc4F)ccn23)CNC1 [Example 12, 7-(2-Fluoro-4-{(5R)-5-[(1H-1,2,3-triazol-1-yl)methyl]-4,5-dihydro-1,2-oxazol-3-yl}phenyl)-3-(3-methylazetidin-3-yl)[1,2,4]triazolo[4,3-a]pyridine]	0.78 µM (≈ 0.337 µg/mL)	0.78 µM (≈ 0.337 µg/mL)	> 100 µM
O=S1(=O)CCC(F)(c2c(F)cc(C3=NO[C@@H](Cn4ccnn4)C3)cc2F)CC1 [Example 1, 4-[2,6-Difluoro-4-[(5R)-5-(triazol-1-ylmethyl)-4,5-dihydroisoxazol-3-yl]phenyl]-4-fluoro-thiane 1,1-dioxide]	1.2 µM (≈ 0.497 µg/mL)	1.2 µM (≈ 0.497 µg/mL)	93 µM
CN1CC(C)(S(=O)(=O)c2ccc(-c3ccc(C4=NO[C@@H](CNC(=O)C5(C)CC5)C4)cc3F)cc2)C1 [Example 27, N-({(5R)-3-[4′-(1,3-Dimethylazetidine-3-sulfonyl)-2-fluoro[1,1′-biphenyl]-4-yl]-4,5-dihydro-1,2-oxazol-5-yl}methyl)-1-methylcyclopropane-1-carboxamide]	0.78 µM (≈ 0.39 µg/mL)	0.78 µM (≈ 0.39 µg/mL)	37 µM
O=S1(=O)CCC(F)(c2c(F)cc(C3=NO[C@@H](CO)C3)cc2F)CC1 [Example 47, 4-{2,6-Difluoro-4-[(5R)-5-(hydroxymethyl)-4,5-dihydro-1,2-oxazol-3-yl]phenyl}-4-fluoro-1λ^6-thiane-1,1-dione]	6.25 µM (≈ 2.27 µg/mL)	6.25 µM (≈ 2.27 µg/mL)	> 100 µM
O=C(NC[C@H]1CC(c2cc(F)c(C3(F)CCS(=O)(=O)CC3)c(F)c2)=NO1)OC1CC1 [Example 50, Cyclopropyl({(5R)-3-[3,5-difluoro-4-(4-fluoro-1,1-dioxo-1λ^6-thian-4-yl)phenyl]-4,5-dihydro-1,2-oxazol-5-yl}methyl)carbamate]	3.12 µM (≈ 1.39 µg/mL)	3.12 µM (≈ 1.39 µg/mL)	> 100 µM
CN1CC(C)(S(=O)(=O)c2ccc(-c3ccc(C4=NO[C@@H](Cn5ccnn5)C4)c(F)c3F)cc2)C1 [Example 26, 1-({(5R)-3-[4′-(1,3-Dimethylazetidine-3-sulfonyl)-2,3-difluoro[1,1′-biphenyl]-4-yl]-4,5-dihydro-1,2-oxazol-5-yl}methyl)-1H-1,2,3-triazole]	0.39 µM (≈ 0.19 µg/mL)	0.39 µM (≈ 0.19 µg/mL)	28 µM
O=S1(=O)CCC(F)(c2c(F)cc(C3=NO[C@@H](Cn4cc(CO)nn4)C3)cc2F)CC1 [Example 40, 4-{2,6-Difluoro-4-[(5R)-5-{[4-(hydroxymethyl)-1H-1,2,3-triazol-1-yl]methyl}-4,5-dihydro-1,2-oxazol-3-yl]phenyl}-4-fluoro-1λ^6-thiane-1,1-dione]	1.56 µM (≈ 0.693 µg/mL)	1.56 µM (≈ 0.693 µg/mL)	> 100 µM
CN1CC(F)(c2nnc3cc(-c4ccc(C5=NO[C@@H](Cn6ccnn6)C5)cc4F)ccn23)C1 [Example 51, 3-(3-Fluoro-1-methylazetidin-3-yl)-7-(2-fluoro-4-{(5R)-5-[(1H-1,2,3-triazol-1-yl)methyl]-4,5-dihydro-1,2-oxazol-3-yl}phenyl)[1,2,4]triazolo [4.3-a]pyridine]	0.09 µM (≈ 0.0405 µg/mL)	0.09 µM (≈ 0.0405 µg/mL)	1.4 µM
CS(=O)(=O)NC[C@H]1CC(c2ccc(-c3ccc(S(C)(=O)=O)cc3)c(F)c2)=NO1 [Example 19, N-({(5R)-3-[2-Fluoro-4′-(methanesulfonyl)[1,1′-biphenyl]-4-yl]-4,5-dihydro-1,2-oxazol-5-yl}methyl) methanesulfonamide]	9.38 µM (≈ 4 µg/mL)	6.25 µM (≈ 2.67 µg/mL)	> 100 µM
CN1CC(S(=O)(=O)c2ccc(-c3ccc(C4=NO[C@@H](Cn5ccnn5)C4)cc3F)cc2)C1 [Example 32, 1-({(5R)-3-[2-Fluoro-4′-(1-methylazetidine-3-sulfonyl)[1,1′-biphenyl]-4-yl]-4,5-dihydro-1,2-oxazol-5-yl}methyl)-1H-1,2,3-triazole]	0.09 µM (≈ 0.041 µg/mL)	0.065 µM (≈ 0.0296 µg/mL)	0.77 µM
CC1(S(=O)(=O)c2ccc(-c3ccc(C4=NO[C@@H](Cn5ccnn5)C4)cc3F)cc2)CNC1 [Example 23, 1-({(5R)-3-[2-Fluoro-4′-(3-methylazetidine-3-sulfonyl)[1,1′-biphenyl]-4-yl]-4,5-dihydro-1,2-oxazol-5-yl}methyl)-1H-1,2,3-triazole]	0.78 µM (≈ 0.355 µg/mL)	1.56 µM (≈ 0.711 µg/mL)	16 µM
CN1CC(C)(S(=O)(=O)c2ccc(-c3ccc(C4=NO[C@@H](CNC(=O)C56CC(C5)C6)C4)cc3F)cc2)C1 [Example 28, N-({(5R)-3-[4′-(1,3-Dimethylazetidine-3-sulfonyl)-2-fluoro[1,1′-biphenyl]-4-yl]-4,5-dihydro-1,2-oxazol-5-yl}methyl)bicyclo[1.1.1] pentane-1-carboxamide]	0.78 µM (≈ 0.399 µg/mL)	1.56 µM (≈ 0.798 µg/mL)	62 µM
CN1CC(Oc2ccc(-c3ccc(C4=NO[C@@H](CO)C4)cc3F)cc2)C1 [Example 35, [(5R)-3-{2-Fluoro-4′-[(1-methylazetidin-3-yl)oxy][1,1′-biphenyl]-4-yl}-4,5-dihydro-1,2-oxazol-5-yl]methanol]	3.12 µM (≈ 1.11 µg/mL)	3.12 µM (≈ 1.11 µg/mL)	> 50 µM
CS(=O)(=O)NC[C@H]1CC(c2cc(F)c(C3(F)CCS(=O)(=O)CC3)c(F)c2)=NO1 [Example 53, N-({(5R)-3-[3,5-Difluoro-4-(4-fluoro-1,1-dioxo-1λ^6-thian-4-yl)phenyl]-4,5-dihydro-1,2-oxazol-5-yl}methyl) methanesulfonamide]	6.25 µM (≈ 2.75 µg/mL)	6.25 µM (≈ 2.75 µg/mL)	> 100 µM
CN1CC(S(=O)(=O)c2ccc(-c3ccc(C4=NO[C@@H](CNS(C)(=O)=O)C4)cc3F)cc2)C1 [Example 11, N-({(5R)-3-[2-Fluoro-4′-(1-methylazetidine-3-sulfonyl)[1,1′-biphenyl]-4-yl]-4,5-dihydro-1,2-oxazol-5-yl}methyl)methanesulfonamide]	1.17 µM (≈ 0.563 µg/mL)	0.975 µM (≈ 0.47 µg/mL)	> 100 µM
CN1CC(C)(S(=O)(=O)c2ccc(-c3ccc(C4=NO[C@@H](CNC(=O)C5CC5)C4)cc3F)cc2)C1 [Example 49, N-({(5R)-3-[4′-(1,3-Dimethylazetidine-3-sulfonyl)-2-fluoro[1,1′-biphenyl]-4-yl]-4,5-dihydro-1,2-oxazol-5-yl}methyl) cyclopropanecarboxamide]	0.17 µM (≈ 0.0825 µg/mL)	0.15 µM (≈ 0.0728 µg/mL)	51 µM
CN1CC(F)(S(=O)(=O)c2ccc(-c3ccc(C4=NO[C@@H](Cn5ccnn5)C4)cc3F)cc2)C1 [Example 44, l-({(5R)-3-[2-Fluoro-4′-(3-fluoro-1-methylazetidine-3-sulfonyl)[1,1′-biphenyl]-4-yl]-4,5-dihydro-1,2-oxazol-5-yl}methyl)-1H-1,2,3-triazole]	0.12 µM (≈ 0.0568 µg/mL)	0.09 µM (≈ 0.0426 µg/mL)	1.4 µM
CCC1(S(=O)(=O)c2ccc(-c3ccc(C4=NO[C@@H](Cn5ccnn5)C4)cc3F)cc2)CN(C)C1 [Example 43, 1-({(5R)-3-[4′-(3-Ethyl-1-methylazetidine-3-sulfonyl)-2-fluoro[1,1′-biphenyl]-4-yl]-4,5-dihydro-1,2-oxazol-5-yl}methyl)-1H-1,2,3-triazole]	0.19 µM (≈ 0.0919 µg/mL)	0.19 µM (≈ 0.0919 µg/mL)	4.1 µM
CN1CC(F)(C(F)(F)c2ccc(-c3ccc(C4=NO[C@@H](Cn5ccnn5)C4)cc3F)cc2)C1 [Example 15, (5R)-3-[4-[4-[Difluoro-(3-fluoro-1-methyl-azetidin-3-yl)methyl]phenyl]-3-fluoro-phenyl]-5-(triazol-1-ylmethyl)-4,5-dihydroisoxazole]	0.055 µM (≈ 0.0253 µg/mL)	0.035 µM (≈ 0.0161 µg/mL)	4.3 µM
CN1CCC(C)(S(=O)(=O)c2ccc(-c3ccc(C4=NO[C@@H](Cn5ccnn5)C4)cc3F)cc2)C1 (stereo partly drawn) [Example 45, l-({(5R)-3-[4′-(1,3-Dimethylpyrrolidine-3-sulfonyl)-2-fluoro[1,1′-biphenyl]-4-yl]-4,5-dihydro-1,2-oxazol-5-yl}methyl)-1H-1,2,3-triazole]	0.39 µM (≈ 0.189 µg/mL)	0.19 µM (≈ 0.0919 µg/mL)	4 µM
